Measured values: PMC7725824, “Fused isoselenazolium salts suppress breast cancer cell growth by dramatic increase in pyruvate-dependent mitochondrial ROS production” (Scientific Reports, 2020)

Tests used:
MCF-7 = assay: Cytotoxicity assay (MTT), MCF-7; assay type: cell-based, human; conditions: Homo sapiens, MCF7; breast cancer cell line; MTT, 48 h; mean ± S.D., 3 experiments; read-out: Cytotoxicity, IC50, MCF-7
[1] = Cytotoxicity assay (MTT), H9C2; assay type: cell-based, rat; conditions: rat, H9C2 cells (cardiomyoblasts); normal cell line; MTT, 48 h; mean ± S.D., 3 experiments
[2] = Cytotoxicity assay (MTT), 3T3; assay type: cell-based, mouse; conditions: mouse, NIH 3T3 cells (fibroblasts), normal cell line, mean ± S.D., 3 experiments
[3] = Cytotoxicity assay (MTT), HEKa; assay type: cell-based, human; conditions: human, HEKa cells (primary epidermal keratinocytes), normal cell line, mean ± S.D., 3 experiments
MCF-7 cells = assay: Fluorometric measurement of NMN level; assay type: cell-based, human; conditions: 2 μM, 10 min, vs control
Description: For fluorometric measurements of NMN, a previously described method was used, with minor modifications. […] The cells were washed with PBS and then lysed by adding 200 μl of 1 M HClO4 to each well and incubating at 4 °C for 20 min. The cells were harvested by scraping and transferred to a tube. The extracts were neutralized with 100 μl of 2 M KOH for 5 min at room temperature and 50 μl of 0.1 M bicine (pH 7.4) was added. The samples were centrifuged at 14 000 × g for 10 min at 4 °C, and the supernatant was collected for further analysis. The protein concentration in each sample was determined using a Bio-Rad protein assay kit. […] The reaction was incubated for 2 min at 4 °C, after which 45 μl of 88% formic acid was added, and the samples were incubated for another 10 min at 37 °C on a shaker. The fluorescence was measured using a Tecan multiplate reader Infinite 1000 (Austria) with excitation at 382 nm and emission at […].

DOPC liposomes [4] = assay: 1H NMR interaction study with DOPC liposomes; assay type: binding; conditions: 0.4 mM 6, 1.6 mM DOPC, 25 °C
Description: (§1) Cardiolipin (CL) liposomes for NMR analysis were prepared by the thin-film method followed by sonication and extrusion. […] The obtained lipid thin film was dried in vacuo overnight. Then, the dry lipid film was rehydrated in D18 HEPES buffer (20 mM, pH 7.4, 10% D2O) and gently vortexed, and the samples were sonicated for 30 min in a bath-type sonicator. The obtained sample of liposomes was extruded 21 times through a 100-nm pore polycarbonate filter (Nucleopore Corp., CA). Similarly, liposomes from DOPC only were prepared.
(§2) To study the interactions of compound 6 with CL and DOPC liposomes, a stock solution of 6 (2 mM) in D18 HEPES buffer (20 mM, pH 7.4, 10% D2O) was added to CL/DOPC or DOPC liposome dispersions to reach 400:1200:400 µM CL/DOPC/6 solution or 1600:400 µM DOPC/6 solution followed by gentle vortexing for 30 s.
(§3) NMR spectra were acquired on a 600‐MHz Bruker Avance NEO spectrometer equipped with a 5 mm QCI-F quadruple resonance pulsed‐field‐gradient cryoprobe. The temperature was calibrated against methanol and set to 25 °C. Chemical shifts were referenced to the water resonance at 4.77 ppm with respect to 4,4-dimethyl-4-silapentane-1-sulfonic acid (DSS). The samples contained […] 6 in 90% H2O and 10% D2O with and without DOPC or CL/DOPC liposomes. The NMR data were processed and analyzed using MestReNova software.

[5] = test system: CL/DOPC liposomes (cardiolipin); assay: 1H NMR interaction study with CL-containing liposomes; assay type: binding; conditions: 0.4 mM 6, 1.2 mM DOPC, 0.4 mM CL, 25 °C
Description: as §1, §2, §3

DOPC liposomes [6] = assay: Isothermal titration calorimetry with DOPC liposomes; assay type: binding; conditions: 25 °C, 200 µM total lipid
Description: (§4) The obtained large multilamellar liposomes were sonicated in a bath-type sonicator (Cole Parmer Ultrasonic Cleaner 8891CPX (USA)) at room temperature for 30 min and then extruded (LiposoFast-Basic, Avestin) through a 100 nm polycarbonate filter 21 times. The quality of the resulting small unilamellar vesicles was determined by dynamic light scattering (DLS) (Zetasizer Nano ZSP, Malvern Panalytical Ltd., UK).
(§5) The experiments were carried out using an isothermal titration calorimeter (MicroCal iTC200, Malvern Panalytical Ltd., UK). To carry out the titration, the injection syringe was filled with a solution of compound 6 (100 µM), and the reaction cell was filled with liposome dispersion (200 µM of total lipid). The experiments were performed at 25 and 37 °C with a stirring speed of 750 rpm. […] The data consisted of a series of heat flows as a function of time, which were collected automatically and analyzed by Origin 7 software (OriginLab Corporation, Northampton, USA, www.originlab.com, 2002). The changes in enthalpy (ΔH) due to the interactions between 6 and the liposome dispersions were recorded, and then stoichiometry (N), the association constant (KA), the dissociation constant (KD), entropy (ΔS) and the Gibbs free energy (ΔG) were calculated. The obtained sigmoidal titration curves were evaluated assuming independent saturable binding sites in the outer vesicle interface. […]

[7] = test system: CL/DOPC (1:3) vesicles (cardiolipin); assay: Isothermal titration calorimetry with CL/DOPC liposomes; assay type: binding; conditions: 25 °C
Description: as §4, §5

`OC1(c2[se][n+]3ccsc3c2Br)CCCCC1` [Compound 6, 3-bromo-2-(1-hydroxycyclohexyl)[1,2]selenazolo[2,3-b]thiazolium chloride] gave an IC50 (MCF-7) of 3.23 ± 0.03 µM, an IC50 at 48 h [1] of 3.7 ± 0.2 µM and an IC50 at 48 h [2] of 7.4 ± 0.8 µM. For the same molecule, the IC50 at 48 h [3] was 2.84 ± 0.08 µM, the “decrease in NMN levels” value (MCF-7 cells) was 26% and the “aromatic 1H NMR resonances in the presence of DOPC liposomes” value (DOPC liposomes [4]) was “noticeably broadened”. The “1H NMR resonances in the presence of CL-containing liposomes” value [5] was “broadened”, the “ITC binding to DOPC liposomes” value (DOPC liposomes [6]) was “no signs of binding” and the “ITC isoselenazolium cation–CL interaction” value [7] was “decrease in enthalpy”.
